Data taken from patent US20120225062A1 (priority 2011, published 2012).

How the values were obtained:
[1] = test system: KMS11 (human myeloma cell line); assay: Cell Proliferation Assay (CellTiter-Glo, 3 days); format: cell-based; conditions: KMS-11, 72 h, KMS11-luc cells
Outline: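 EC50 from CellTiter-Glo luminescence after 3-day, 37° C compound treatment of KMS11 cells seeded at 2000 per well in IMDM plus 10% FBS.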

Pim 2 = Pim 2 (Homo sapiens, UniProt Q9P1W9); assay: Pim 2 AlphaScreen assay (high ATP)
Pim 2, sequence (Q9P1W9 whole entry): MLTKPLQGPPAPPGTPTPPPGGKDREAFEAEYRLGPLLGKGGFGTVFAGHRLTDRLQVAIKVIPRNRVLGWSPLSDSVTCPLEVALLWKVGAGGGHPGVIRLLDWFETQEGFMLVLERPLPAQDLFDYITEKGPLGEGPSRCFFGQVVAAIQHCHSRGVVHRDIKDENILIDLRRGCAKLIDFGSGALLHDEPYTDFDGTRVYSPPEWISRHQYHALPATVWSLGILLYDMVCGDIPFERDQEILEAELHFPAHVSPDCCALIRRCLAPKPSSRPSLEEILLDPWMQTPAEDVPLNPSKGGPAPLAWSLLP

Pim 1 = Pim 1 (Homo sapiens, UniProt P11309); assay: Pim 1 AlphaScreen assay (high ATP)
Pim 1, sequence (P11309 whole entry): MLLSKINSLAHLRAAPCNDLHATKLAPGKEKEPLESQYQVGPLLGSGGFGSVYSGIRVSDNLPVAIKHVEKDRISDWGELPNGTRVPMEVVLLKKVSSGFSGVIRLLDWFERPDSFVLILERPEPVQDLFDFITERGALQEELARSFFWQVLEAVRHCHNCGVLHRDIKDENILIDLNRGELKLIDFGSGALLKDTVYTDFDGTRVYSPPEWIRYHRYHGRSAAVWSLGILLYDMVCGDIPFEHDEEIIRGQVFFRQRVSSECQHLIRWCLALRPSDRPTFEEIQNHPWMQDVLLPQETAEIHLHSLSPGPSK

Pim 3 = Pim 3 (Homo sapiens, UniProt Q86V86); assay: Pim 3 AlphaScreen assay (high ATP)

Row | EC50 [1] [nM] | IC50 (Pim 2) [nM] | IC50 (Pim 1) [nM] | IC50 (Pim 3) [nM] | Compound
1 | 24 | 2.16 | 0.02 | 0.58 | C[C@H]1C[C@@H](c2ccncc2NC(=O)c2ccc(F)c(-c3c(F)cc(O[C@H]4CCCOC4)cc3F)n2)C[C@@H](N)[C@@H]1O [Example 80, N-(4-((1R,3R,4R,5S)-3-amino-4-hydroxy-5-methylcyclohexyl)pyridin-3-yl)-6-(2,6-difluoro-4-((S)-tetrahydro-2H-pyran-3-yloxy)phenyl)-5-fluoropicolinamide]
2 | 381 | 1.33 | 0.02 | 0.78 | C[C@@H]1C[C@H](N)C[C@H](c2ccncc2NC(=O)c2ccc(F)c(-c3c(F)cc(OCC4CCOCC4)cc3F)n2)C1 [Example 177, N-(4-((1R,3S,5S)-3-amino-5-methylcyclohexyl)pyridin-3-yl)-6-(2,6-difluoro-4-((tetrahydro-2H-pyran-4-yl)methoxy)phenyl)-5-fluoropicolinamide]
3 | 228 | 9.57 | 0.13 | 4.89 | CCOCc1cc(F)c(-c2nc(C(=O)Nc3cnccc3[C@H]3C[C@@H](N)[C@@H](O)[C@@H](C)C3)ccc2F)c(F)c1 [Example 134, N-(4-((1R,3R,4S,5S)-3-amino-4-hydroxy-5-methylcyclohexyl)pyridin-3-yl)-6-(4-(ethoxymethyl)-2,6-difluorophenyl)-5-fluoropicolinamide]
4 | 4 | 0.73 | 0.01 | 0.13 | C[C@@H]1C[C@H](N)C[C@H](c2ccncc2NC(=O)c2nc(-c3c(F)cc(C4(O)COC4)cc3F)c(F)cc2N)C1 [Example 221, 3-amino-N-(4-((1R,3S,5S)-3-amino-5-methylcyclohexyl)pyridin-3-yl)-6-(2,6-difluoro-4-(3-hydroxyoxetan-3-yl)phenyl)-5-fluoropicolinamide]
5 | 82 | 0.56 | 0.01 | 0.19 | C[C@H]1CN(c2ccncc2NC(=O)c2ccc(F)c(-c3c(F)cc(OCC4CCOCC4)cc3F)n2)C[C@@H](N)[C@@H]1O [Example 200, N-(4-((3R,4R,5S)-3-amino-4-hydroxy-5-methylpiperidin-1-yl)pyridin-3-yl)-6-(2,6-difluoro-4-((tetrahydro-2H-pyran-4-yl)methoxy)phenyl)-5-fluoropicolinamide]
6 | 181 | 14.2 | 0.25 | 16 | C[C@H]1C[C@@H](c2ccncc2NC(=O)c2ccc(F)c(-c3c(F)cc4c(c3F)OCC[C@]4(C)O)n2)C[C@@H](N)[C@@H]1O [Example 237, N-(4-((1R,3R,4R,5S)-3-amino-4-hydroxy-5-methylcyclohexyl)pyridin-3-yl)-6-((S)-6,8-difluoro-4-hydroxy-4-methylchroman-7-yl)-5-fluoropicolinamide]
7 | 17 | 0.91 | 0.01 | 0.22 | C[C@@H]1C[C@H](N)C[C@H](c2ccncc2NC(=O)c2nc(-c3c(F)cc(OC4CCOCC4)cc3F)c(F)cc2N)C1 [Example 86, 3-amino-N-(4-((1R,3S,5S)-3-amino-5-methylcyclohexyl)pyridin-3-yl)-6-(2,6-difluoro-4-(tetrahydro-2H-pyran-4-yloxy)phenyl)-5-fluoropicolinamide]
8 | 186 | 11.4 | 0.07 | 2.25 | C[C@H]1C[C@@H](c2ccncc2NC(=O)c2ccc(F)c(-c3c(F)ccc(OCCO)c3F)n2)C[C@@H](N)[C@@H]1O [Example 30, N-(4-((1R,3R,4R,5S)-3-amino-4-hydroxy-5-methylcyclohexyl)pyridin-3-yl)-6-(2,6-difluoro-3-(2-hydroxyethoxy)phenyl)-5-fluoropicolinamide]
9 | 583 | 4.54 | 0.05 | 4.45 | C[C@@H]1C[C@H](N)C[C@H](c2ccncc2NC(=O)c2ccc(F)c(-c3c(F)cc(C4(F)COC4)cc3F)n2)C1 [Example 135, N-(4-((1R,3S,5S)-3-amino-5-methylcyclohexyl)pyridin-3-yl)-6-(2,6-difluoro-4-(3-fluorooxetan-3-yl)phenyl)-5-fluoropicolinamide]
